Measured values as given in patent US20150284683A1, “METHOD, COMBINATION AND/OR COMPOSITION FOR INDUCING CARDIOMYOCYTE DIFFERENTATION” (SINGAPORE HEALTH SERVICES LTD, priority 2012, published 2015).

Assays:
Type in all cases: cell-based, human
H3-Nkx2.5-GFP line [1] = experiment: Spin EB contraction during protocol standardization (Example 2); details: only 10 uM SB203580; EBs of 2,500 to 7,500 cells
Protocol: Briefly, hiPSC/hESC lines were pre-treated with 10 μM Y27632 (Stem Cell Technologies, VA, Canada) for 4 h before dissociating them to single cells with. Accutase (Stem Cell Technologies, VA, Canada). Cells were aggregated in spin EBs of 5000 cells/EB in AggreWell™ 800 (Stem Cell Technologies, VA, Canada) in media A (mTesR1: DMEM-F12-B27 (1:1) with 4 mg/mL PVA) with Ascorbic acid (284 μM) and BMP4 ([…]) and centrifuged at 300 g for 5 min and incubated overnight. […] […] […] EBs were plated on day 8 in EB2 medium (DMEM-F12 with 2% FBS) on 0.1% gelatin coated dishes. Beating areas were clearly observed between day 10-14 depending on different cell lines. Beating areas were manually dissected out after day 14 of differentiation and utilized for all experiments.
To maintain consistency in differentiation efficiency, an EB based protocol was utilised to recapitulate early cardiac development that hinges on stage-specific activation and inhibition′ of Wnt/β-catenin along with BMP modulation. All initial experiments were performed using H3-Nkx2.5-GFP line to standardize the protocol. Spin EBs of different sizes (1,000, 2,500, 5,000, 7,500 and 10,000 cells/EB) were made and it was observed that EBs of 2,500 to 7,500 cells gave contracting cardiomyocytes by day 14-15 using only 10 uM SB203580 (FIG. 11B; Non-treated), with highest efficiencies with 5,000 cell EBs. Next. […]

hiPSC C2 cell line = experiment: Embryoid body (EB) cardiac differentiation, beating EBs, hiPSC C2
Protocol: (§1) Human ES cells (H9; Wicell, USA) and iPS cells (MSnviPSNF2 (C2) and MSnviPSNF3 (C3); both described in Mehta et al., 2011) were maintained on 1% matrigel (BD Biosciences, CA, USA) and grown in chemically defined mTeSR1 medium (Stem Cell Technologies, VA, Canada). Differentiated areas (<10%) were manually removed periodically with a scraper and prior to passaging. Pluripotent stem cells were subsequently washed with DMEM-F12 (Invitrogen, CA, USA) and incubated with 1 mg/ml dispase (Stem Cell Technologies, VA, Canada) for 5-7 minutes. Subsequently, cells colonies were washed using DMEM-F12 and carefully cut into small clumps of approximately 50-70 μm in size before being scrapped from the surface of the culture dishes. […]
(§2) Subsequently, addition of different small molecules (components) were carried out at various stages of differentiation, either alone or in combination with at least one other component (FIG. 1): SB 203580 daily from day 2 through to day 8 from EB induction; Wnt modulator IWP4 daily from day 4 through to day 8 from EB induction, CSA daily from day 4 through to day 8 from EB induction, and ROS activator H2O2 on day 8 (15 min prior to plating). […] All EBs were evaluated morphologically under the microscope at 4× magnification for 10-15 seconds. […]

hESC (H9) cell line = experiment: Embryoid body (EB) cardiac differentiation, beating EBs, hESC H9; details: SB203580 5 μM day 2 to day 8
Protocol: as §1, §2

hiPSC C3 cell line = experiment: Embryoid body (EB) cardiac differentiation, beating EBs, hiPSC C3
Protocol: as §1, §2

H3-Nkx2.5-GFP line [2] = experiment: Real-time PCR gene expression during standardization of differentiation (Example 2); details: Treated S1+S2+VEGF
Protocol: For real-time reverse-transcription polymerase chain reaction (qRT-PCR) analysis, RNA was isolated with the RNeasy kit (Qiagen GmbH, Hilden, Germany). One μg of total RNA was converted to complementary DNA. by Superscript III first-strand synthesis system (Invitrogen, CA, USA). cDNA template (5 ng) was used from each sample and SYBR green real-time PCR studies were performed using Quantifast kit (Qiagen GmbH, Hilden, Germany) and primer (Supplementary table 1) as per the kit instructions. Samples were cycled with RotorGene Q (Qiagen GmbH, Hilden, Germany) as follows: 5 minutes at 95° C., followed by 40 cycles of 10 seconds at 95° C. and 30 second extension at 60° C. All experiments were performed in triplicates. Relative quantification was calculated according to the ΔΔCt method for quantitative real-time PCR (using an endogenous control gene, GAPDH). For each gene, the expression at a specific day was then normalized by its baseline values. Heatmaps were generated from Ct values using Genesis software.
To maintain consistency in differentiation efficiency, an EB based protocol was utilised to recapitulate early cardiac development that hinges on stage-specific activation and inhibition′ of Wnt/β-catenin along with BMP modulation. All initial experiments were performed using H3-Nkx2.5-GFP line to standardize the protocol. […]

[3] = SB203580 5 μM day 2-8, without or with CSA 3 μg/ml day 4-8, 21 days
[4] = titration 1, 3, 5, 7 μM with SB203580 5 μM and CSA 3 μg/ml

Question: For `C[S+]([O-])c1ccc(-c2nc(-c3ccc(F)cc3)c(-c3ccncc3)[nH]2)cc1` (centres unmarked) [SB203580, 4-[4-(4-fluorophenyl)-2-(4-methylsulfinylphenyl)-1H-imidazol-5-yl]pyridine], which “day by which EBs gave contracting cardiomyocytes” value (H3-Nkx2.5-GFP line [1]) is on record?
Answer: 14 to 15 days

Question: And the “cardiac-inducing effect” value (hiPSC C2 cell line; [3])?
Answer: no cardiac-inducing effect

Question: And the “day spontaneous beating clusters were first observed” value (hESC (H9) cell line)?
Answer: 14 days

Question: And the “percentage of total EBs plated found to be beating” value (hESC (H9) cell line; after 21 days)?
Answer: 16.6%

Question: What about the “cardiac-inducing effect” value (hiPSC C3 cell line; [3]) of the same molecule?
Answer: no cardiac-inducing effect

Question: For VEGF, which “gene expression change” value (H3-Nkx2.5-GFP line [2]) is on record?
Answer: substantially increased gene expression levels of Wnt11

Question: Which “IWP4 concentration at which induction of contracting loci peaked” value (hiPSC C2 cell line; [4]) does the source give for `COc1ccccc1-n1c(SCC(=O)Nc2nc3ccc(C)cc3s2)nc2c(c1=O)SCC2` [IWP4, 2-(3,4,6,7-tetrahydro-3-(2-methoxyphenyl)-4-oxothieno[3,2-d]pyrimidin-2-ylthio)-N-(6-methylbenzo[d]thiazol-2-yl)acetamide] here?
Answer: 5 µM

Question: And the “IWP4 concentration at which induction of contracting loci peaked” value (hiPSC C3 cell line; [4])?
Answer: 5 µM
